# Results: patent US11198680B2 (BioAxone BioSciences, Inc., priority 2016, dated 2021)
# Test system: HUVEC monolayer
# Test: LPA-treated HUVECs, endothelial monolayer integrity
# Assay type: cell-based, human
# Settings: 1 μM or 10 μM, 20 μM LPA 60 min
# Protocol: Cell lines were exposed to each dose for 1 hr, and then are stimulated with 20 μM LPA for either 5 min or 1 hr as described below. All experiments were conducted in triplicate and analyzed by two independent assessors blinded to both cell line and treatment.
# To examine HUVEC monolayer integrity, cells were plated on PDL-coated coverslips (Corning) coated with fibronectin, collagen-1 and gelatin. 50,000 cells were seeded on each coverslip situated in a 24-well plate. Cells were grown for 3 days at 37° C./5% CO2. […] The medium was exchanged by Medium 200 supplemented with 0.1% HSA and 20 μM of LPA (Santa Cruz) and incubated for 60 min.
# After LPA stimulation, cells were fixed with 4% paraformaldehyde and stained for actin-phalloidin (ThermoFisher, Waltham, Mass.) and V-Cadherin (Cell Signaling, Danvers, Mass.) and mounted on microscope slides. Coverslips were imaged by fluorescence microscopy and the cell free holes in the monolayer are measured using Image J (freeware; https://imagej.nih.gov/ij/).
compound,measurement,value
C[C@@H](N)C1CCN(S(=O)(=O)c2cccc3c(=O)[nH]ccc23)CC1 [1-hydroxy-BA-1049 (R)],monolayer integrity after LPA,restores monolayer integrity
